The values that follow come from US20230322789A1, “PYRAZOLOPYRIDAZINONE COMPOUND, AND PHARMACEUTICAL COMPOSITION AND USE THEREOF” (BroadenBio Co., Ltd., priority 2020, published 2023).

The structures appear in SMILES notation. Structures can show the parent of a compound that is named as a salt.

The target of one experiment is HPK1 (Homo sapiens (Human), UniProt Q92918). Nature of the experiment: HPK1 kinase activity inhibition test (ADP-Glo, luminescence). As to conditions: HPK1 5 nM, ATP 2 μM, read-out: IC50, inhibitory effects of compounds on HPK1 kinase activity. The class given is biochemical. An outline of the steps: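 HPK1 autophosphorylation was run without added substrate. Kinase and compound were preincubated 10 min at 25° C., then ATP was added for 60 min at 25° C. ADP formed was detected by ADP-Glo luminescence, and IC50 was taken from a four-parameter nonlinear fit.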

For another experiment, the system named is Human Jurkat-E6-1 cells. The experiment can be described thus: Measurement of IL-2 secretion of Jurkat cells by ELISA. In kind it is cell-based. As to conditions: anti-CD3/anti-CD28 stimulation 24 hours; for activity at 3 µM / activity at 1 µM: Homo sapiens, Jurkat E6.1, read-out: Percentage of the amount of IL-2 secreted from compound treated/DMSO-treated cells; for activity at 1 µM: test compound 1.0 μM. An outline of the steps: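 Jurkat-E6-1 cells pre-incubated with compound for 30 min at 37° C, then stimulated 24 h with plate-bound anti-CD3 plus soluble anti-CD28. Secreted IL-2 in medium quantified by sandwich ELISA against a standard curve; expressed as percent of DMSO-treated cells.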
In general terms: An ELISA detects its analyte on a solid surface through an enzyme-linked reagent.

Usually IC50 stands for the point on the concentration scale where inhibition reaches its midpoint.

HPK1, sequence (Q92918 whole entry): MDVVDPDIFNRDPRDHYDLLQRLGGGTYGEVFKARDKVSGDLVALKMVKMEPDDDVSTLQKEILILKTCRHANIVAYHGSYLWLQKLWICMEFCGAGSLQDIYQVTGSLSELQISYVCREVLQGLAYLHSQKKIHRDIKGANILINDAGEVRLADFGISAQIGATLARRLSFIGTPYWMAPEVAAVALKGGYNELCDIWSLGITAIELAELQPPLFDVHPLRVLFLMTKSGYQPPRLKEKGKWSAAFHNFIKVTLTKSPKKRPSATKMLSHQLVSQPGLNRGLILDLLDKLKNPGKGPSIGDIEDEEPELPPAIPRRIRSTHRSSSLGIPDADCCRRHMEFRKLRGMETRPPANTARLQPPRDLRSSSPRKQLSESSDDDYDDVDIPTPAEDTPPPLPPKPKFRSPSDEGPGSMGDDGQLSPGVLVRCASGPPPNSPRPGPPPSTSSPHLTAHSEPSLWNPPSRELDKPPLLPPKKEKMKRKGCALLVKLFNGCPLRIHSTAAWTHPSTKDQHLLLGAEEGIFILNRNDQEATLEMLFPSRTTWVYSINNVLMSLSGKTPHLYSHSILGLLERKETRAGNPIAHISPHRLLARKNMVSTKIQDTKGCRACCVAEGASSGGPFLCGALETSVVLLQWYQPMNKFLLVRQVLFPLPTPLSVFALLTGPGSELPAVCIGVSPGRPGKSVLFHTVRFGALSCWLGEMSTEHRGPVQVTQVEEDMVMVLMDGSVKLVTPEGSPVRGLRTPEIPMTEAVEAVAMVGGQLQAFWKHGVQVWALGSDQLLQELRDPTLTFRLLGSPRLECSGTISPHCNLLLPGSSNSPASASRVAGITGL

As to `COc1cc(C#N)cc(F)c1-n1nc2c(-c3ccc4c(c3)CN(C)CC4)n[nH]c2cc1=O` [Compound 159, 3-fluoro-5-methoxy-4-(3-(2-methyl-1,2,3,4-tetrahydroisoquinolin-7-yl)-6-oxo-1H-pyrazolo[4,3-c]pyridazin-5(6H)-yl)benzonitrile], on HPK1, the IC50 is no more than 0.05 µM. The activity at 3 µM with Human Jurkat-E6-1 cells (test compound 3.0 μM) was 454%.

Turning to `CCc1cccc(F)c1-n1nc2c(-c3ccc4c(c3)CN(C)CC4)n[nH]c2cc1=O` [Compound 160, 5-(2-ethyl-6-fluorophenyl)-3-(2-methyl-1,2,3,4-tetrahydroisoquinolin-7-yl)-1H-pyrazolo[4,3-c]pyridazin-6(5H)-one], the concentration for half-maximal inhibition (IC50) at HPK1 is no more than 0.05 µM. Besides, the activity at 3 µM in the experiment on Human Jurkat-E6-1 cells (test compound 3.0 μM) was determined as 354%.

`Cc1cccc(F)c1-n1nc2c(-c3ccc4c(c3)CNCC4)n[nH]c2cc1=O` [Compound 161, 5-(2-fluoro-6-methylphenyl)-3-(1,2,3,4-tetrahydroisoquinolin-7-yl)-1H-pyrazolo[4,3-c]pyridazin-6(5H)-one hydrochloride]: the IC50 at HPK1 was no more than 0.05 µM. The activity at 3 µM in the experiment with Human Jurkat-E6-1 cells (test compound 3.0 μM) came out at 393%.

Consider `Cc1cccc(F)c1-n1nc2c(-c3ccc4c(c3)CN(CCO)CC4)n[nH]c2cc1=O` [Compound 162, 5-(2-fluoro-6-methylphenyl)-3-(2-(2-hydroxyethyl)-1,2,3,4-tetrahydroisoquinolin-7-yl)-1H-pyrazolo[4,3-c]pyridazin-6(5H)-one], for which the IC50 at HPK1 is no more than 0.05 µM. Further, the activity at 3 µM with Human Jurkat-E6-1 cells (test compound 3.0 μM) stood at 586%.

For `Cc1cccc(F)c1-n1nc2c(-c3ccc4c(c3)CN(C3CC(N)C3)CC4)n[nH]c2cc1=O` (stereo not shown) [Compound 163], the IC50 on HPK1 was in the range of 0.05 to 0.5 µM. In addition, the activity at 3 µM with Human Jurkat-E6-1 cells (test compound 3.0 μM) is 117%.

Consider `Cc1cccc(F)c1-n1nc2c(-c3ccc4c(c3)CN(C3CNC3)CC4)n[nH]c2cc1=O` [Compound 164, 3-(2-(azetidin-3-yl)-1,2,3,4-tetrahydroisoquinolin-7-yl)-5-(2-fluoro-6-methylphenyl)-1H-pyrazolo[4,3-c]pyridazin-6(5H)-one hydrochloride], for which the half-maximal inhibitory concentration (IC50) at HPK1 was in the range of 0.05 to 0.5 µM. Besides, the activity at 3 µM in the experiment with Human Jurkat-E6-1 cells (test compound 3.0 μM) was 159%.

As to `Cc1cccc(F)c1-n1nc2c(-c3ccc4c(c3)CN(C(C)CO)CC4)n[nH]c2cc1=O` (stereo not shown) [Compound 165, 5-(2-fluoro-6-methylphenyl)-3-(2-(1-hydroxylprop-2-yl)-1,2,3,4-tetrahydroisoquinolin-7-yl)-1H-pyrazolo[4,3-c]pyridazin-6(5H)-one], the IC50 at HPK1 fell in the range of 0.05 to 0.5 µM. Also, in the experiment on Human Jurkat-E6-1 cells, the activity at 1 µM is 181%.

As to `Cc1cc(C#N)cc(F)c1-n1nc2c(-c3ccc4c(c3)CN(C)CC4)n[nH]c2cc1=O` [Compound 170, 3-fluoro-5-methyl-4-(3-(2-methyl-1,2,3,4-tetrahydroisoquinolin-7-yl)-6-oxo-1H-pyrazolo[4,3-c]pyridazin-5(6H)-yl)benzonitrile], at HPK1, the IC50 is no more than 0.05 µM. The activity at 1 µM in the experiment with Human Jurkat-E6-1 cells was 279%.

For the compound `Cc1cc(C#N)cc(F)c1-n1nc2c(-c3ccc4c(c3)CNCC4)n[nH]c2cc1=O` [Compound 171, 3-fluoro-5-methyl-4-(3-(1,2,3,4-tetrahydroisoquinolin-7-yl)-6-oxo-1H-pyrazolo[4,3-c]pyridazin-5(6H)-yl)benzonitrile], the IC50 at HPK1 was in the range of 0.05 to 0.5 µM. Besides, the activity at 3 µM with Human Jurkat-E6-1 cells (test compound 3.0 μM) came to 220%.

Take `Cc1cccc(F)c1-n1nc2c(-c3ccc4c(c3)CN3C(=O)OC[C@@H]3C4)n[nH]c2cc1=O` [Compound 177, (S)-7-(5-(2-fluoro-6-methylphenyl)-6-oxo-5,6-dihydro-1H-pyrazolo[4,3-c]pyridazin-3-yl)-10,10a-dihydro-1H-oxazolo[3,4-b]isoquinolin-3(5H)-one]: the half-maximal inhibitory concentration (IC50) on HPK1 was no more than 0.05 µM. Also, the activity at 3 µM in the experiment on Human Jurkat-E6-1 cells (test compound 3.0 μM) stood at 481%.

Turning to `Cc1cccc(F)c1-n1nc2c(-c3ccc4c(c3)CCN(C3CNC3)C4)n[nH]c2cc1=O` [Compound 193], the IC50 at HPK1 was no more than 0.05 µM. In the experiment with Human Jurkat-E6-1 cells (test compound 3.0 μM), the activity at 3 µM worked out at 169%.

For the compound `Cc1cccc(F)c1-n1nc2c(-c3cccc(N4CCN(C)CC4)c3)n[nH]c2cc1=O` [Compound 198, 5-(2-fluoro-6-methylphenyl)-3-(3-(4-methylpiperazin-1-yl)phenyl)-1H-pyrazolo[4,3-c]pyridazin-6(5H)-one], the IC50 on HPK1 is no more than 0.05 µM. Also, the activity at 3 µM with Human Jurkat-E6-1 cells (test compound 3.0 μM) was 280%.

`COc1cccc(F)c1-n1nc2c(-c3cccc(N4CCN(C)CC4)c3)n[nH]c2cc1=O` [Compound 199, 5-(2-fluoro-6-methoxyphenyl)-3-(3-(4-methylpiperazin-1-yl)phenyl)-1H-pyrazolo[4,3-c]pyridazin-6(5H)-one]: the IC50 at HPK1 is no more than 0.05 µM. Also, the activity at 1 µM with Human Jurkat-E6-1 cells was 328%.

Regarding `CCc1cccc(F)c1-n1nc2c(-c3cccc(N4CCN(C)CC4)c3)n[nH]c2cc1=O` [Compound 200, 5-(2-ethyl-6-fluorophenyl)-3-(3-(4-methylpiperazin-1-yl)phenyl)-1H-pyrazolo[4,3-c]pyridazin-6(5H)-one], the IC50 on HPK1 is no more than 0.05 µM. Besides, in the experiment with Human Jurkat-E6-1 cells (test compound 3.0 μM), the activity at 3 µM was 286%.

For the compound `COc1cccc(F)c1-n1nc2c(-c3cccc(N4CC5CCC(C4)N5C)c3)n[nH]c2cc1=O` [Compound 202, 5-(2-fluoro-6-methoxyphenyl)-3-(3-(8-methyl-3,8-diazabicyclo[3.2.1]octan-3-yl)phenyl)-1H-pyrazolo[4,3-c]pyridazin-6(5H)-one], the 50% inhibitory concentration (IC50) on HPK1 is no more than 0.05 µM. Moreover, the activity at 1 µM in the experiment with Human Jurkat-E6-1 cells amounted to 539%.

On to `COc1cccc(F)c1-n1nc2c(-c3cccc(N4CCCC(N)C4)c3)n[nH]c2cc1=O` (stereo not shown) [Compound 204], for which the IC50 at HPK1 was no more than 0.05 µM. Further, the “Percentage of the amount of IL-2 secreted from compound treated/DMSO-treated cells” value with Human Jurkat-E6-1 cells (test compound 3.0 μM) is given as 260%.

In the case of `COc1cccc(F)c1-n1nc2c(-c3cc(N4CCN(C)CC4)ccc3F)n[nH]c2cc1=O` [Compound 210, 3-(2-fluoro-5-(4-methylpiperazin-1-yl)phenyl)-5-(2-fluoro-6-methoxyphenyl)-1H-pyrazolo[4,3-c]pyridazin-6(5H)-one], the IC50 at HPK1 is no more than 0.05 µM. In the experiment on Human Jurkat-E6-1 cells, the activity at 1 µM was 298%.
